Experimental data from patent US20240099214A1, “PLANT DEFENCE GENE EXPRESSION” (UPL Corporation Limited, priority 2021, published 2024).

What was measured:
[1] = system: Tropinone reductase homolog at 1g07440-like (gene 10, Solyc06g083470.2); assay: qRT-PCR expression of gene 10 in tomato leaves; assay type: in vivo, Tomato ecotype corbarino; design: key: relative expression normalized to a-tubulin housekeeping gene
Experimental: (§1) Tomato ecotype “corbarino” reported to be susceptible to TSWV infection was used in the experiment. Plants were grown in pots in a climatic chamber with a photoperiod of 16/8 hour at 25° C.
(§2) The viral strain (TSWV PV PV-0393) was utilized in the experiment. The virus was mechanically inoculated and propagated on tomato “corbarino”. The inoculum was prepared in an ice-cooled mortar grounding 1 gr of infected tomato tissue in 10 ml of Na-phosphate buffer 0.01M. The fresh prepared inoculum was stored in ice before use. Tomato plants at BBCH16 were dusted with Carborundum 600 mesh and selected leaves were rubbed with some droplets of inoculum. After 5 min. plants were sprayed with sterile water to remove the excess of inoculum and preserve the cell turgor.
(§3) Four treatments were compared: i) Mock inoculated; ii) TSWV; iii) 0.25% Laminarin; iv) 0.25% Laminarin+TSWV. In the last treatment the virus was inoculated 24 hrs after the laminarin application.
(§4) Total RNA was extracted from systemic infected tomato leaves by using the Quick-RNA Plant Kit (Zymo Research) following the manufacturer instructions. The extractions were carried out using three plants after 12 h, 24 h, 48 h, 72 h, 7 days after inoculation. Leaves were instantly frozen in liquid nitrogen after cutting to avoid any deterioration of the sample as well as any defense reaction. The RNA concentration was quantified by measuring the absorbance at 260 nm using a Nanodrop 2000 (Thermofisher). The purity of all of the RNA samples was assessed at an absorbance ratio of OD260/280 and OD260/230, while its structural integrity was checked by agarose gel electrophoresis. Only high-quality RNA with OD 260/280 and OD 260/230>2 was used for subsequent steps. Single-stranded cDNA was synthesized from 1 μg of total RNA using an iScript™ Select cDNA Synthesis Kit and random hexamers as primers (Bio-Rad, Milan, Italy), according to the manufacturer's instructions. Three biological replicates were created from the 3 leaves collected to test 15 genes. Alpha tubulin was used as reference gene.
(§5) qPCR reactions were performed with BioRad (Applied Biosystems, Foster City, CA, USA) using SYBR R Green. Each reaction was performed in 20 μl containing 10 μl of 2× Power SYBR Green PCR Master Mix (Life Technologies), 0.2-0.3 μM primers and cDNA samples diluted 1:20. Each qPCR reaction was performed in triplicate. Reactions were run using the cycling parameter described previously (Reid et al., 2006) and the qPCR data were analyzed by the Ct method (Pfaffl, 2001). In order to analyze the qPCR data, a-tubulin gene was used as housekeeping to determine the relative expression level of the other genes analyzed in this work. For the determination of qPCR efficiency of each primer pairs, a standard curve was performed using the following cDNA dilutions: 1:4, 1:16, 1:64; 1:256 and 1:1024. Every measurement was made in triplicate. The corresponding qPCR efficiencies (E) were calculated for every primer pair with the software 7300 System SDS software (Applied Biosystems, Foster City, CA, USA) according to the equation E=(10−1/slope−1)×100 (Rutledge and Stewart, 2008).
(§6) The significance of the differences between the gene expressions levels were compared by one-way ANOVA (p=0.01) and the means were separated by Tukey post-hoc test using SPSS ver.26 ([…]).

[2] = system: Pathogenesis-related protein P4 (gene 11, M69247.1); assay: qRT-PCR expression of gene 11 in tomato leaves; assay type: in vivo, Tomato ecotype corbarino; design: key: relative expression normalized to a-tubulin housekeeping gene
Experimental: as §1, §2, §3, §4, §5, §6

Substance: laminarin
- RQ1 ([1]; 12 hr, Laminarin + virus): 11.314
- RQ2 ([1]; 12 hr, Laminarin + virus): 15.111
- RQ3 ([1]; 12 hr, Laminarin + virus): 14.571
- RQ mean ([1]; 12 hr, Laminarin + virus): 13.665
- RQ1 ([1]; 12 hr, Laminarin alone): 10.134
- RQ2 ([1]; 12 hr, Laminarin alone): 11.716
- RQ3 ([1]; 12 hr, Laminarin alone): 14.046
- RQ mean ([1]; 12 hr, Laminarin alone): 11.966
- RQ1 ([1]; 24 hr, Laminarin + virus): 12.827
- RQ2 ([1]; 24 hr, Laminarin + virus): 10.653
- RQ3 ([1]; 24 hr, Laminarin + virus): 14.308
- RQ mean ([1]; 24 hr, Laminarin + virus): 12.596
- RQ1 ([1]; 24 hr, Laminarin alone): 13.673
- RQ2 ([1]; 24 hr, Laminarin alone): 15.462
- RQ3 ([1]; 24 hr, Laminarin alone): 14.026
- RQ mean ([1]; 24 hr, Laminarin alone): 14.387
- RQ1 ([1]; 48 hr, Laminarin + virus): 10.393
- RQ2 ([1]; 48 hr, Laminarin + virus): 11.439
- RQ3 ([1]; 48 hr, Laminarin + virus): 11.568
- RQ mean ([1]; 48 hr, Laminarin + virus): 11.133
- RQ1 ([1]; 48 hr, Laminarin alone): 14.550
- RQ2 ([1]; 48 hr, Laminarin alone): 13.402
- RQ3 ([1]; 48 hr, Laminarin alone): 19.692
- RQ mean ([1]; 48 hr, Laminarin alone): 15.882
- RQ1 ([1]; 72 hr, Laminarin + virus): 10.994
- RQ2 ([1]; 72 hr, Laminarin + virus): 19.941
- RQ3 ([1]; 72 hr, Laminarin + virus): 16.529
- RQ mean ([1]; 72 hr, Laminarin + virus): 15.821
- RQ1 ([1]; 72 hr, Laminarin alone): 28.092
- RQ2 ([1]; 72 hr, Laminarin alone): 16.708
- RQ3 ([1]; 72 hr, Laminarin alone): 22.307
- RQ mean ([1]; 72 hr, Laminarin alone): 22.369
- RQ1 ([2]; 12 hr, Laminarin + virus): 12.101
- RQ2 ([2]; 12 hr, Laminarin + virus): 11.431
- RQ3 ([2]; 12 hr, Laminarin + virus): 10.206
- RQ mean ([2]; 12 hr, Laminarin + virus): 11.246
- RQ1 ([2]; 12 hr, Laminarin alone): 0.9441
- RQ2 ([2]; 12 hr, Laminarin alone): 0.8925
- RQ3 ([2]; 12 hr, Laminarin alone): 11.302
- RQ mean ([2]; 12 hr, Laminarin alone): 0.9889
- RQ1 ([2]; 24 hr, Laminarin + virus): 13.862
- RQ2 ([2]; 24 hr, Laminarin + virus): 11.424
- RQ3 ([2]; 24 hr, Laminarin + virus): 11.236
- RQ mean ([2]; 24 hr, Laminarin + virus): 12.174
- RQ1 ([2]; 24 hr, Laminarin alone): 17.183
- RQ2 ([2]; 24 hr, Laminarin alone): 12.595
- RQ3 ([2]; 24 hr, Laminarin alone): 13.075
- RQ mean ([2]; 24 hr, Laminarin alone): 14.284
- RQ1 ([2]; 48 hr, Laminarin + virus): 28.058
- RQ2 ([2]; 48 hr, Laminarin + virus): 20.254
- RQ3 ([2]; 48 hr, Laminarin + virus): 34.812
- RQ mean ([2]; 48 hr, Laminarin + virus): 27.708
- RQ1 ([2]; 48 hr, Laminarin alone): 34.926
- RQ2 ([2]; 48 hr, Laminarin alone): 33.905
- RQ3 ([2]; 48 hr, Laminarin alone): 24.218
- RQ mean ([2]; 48 hr, Laminarin alone): 31.016
- RQ1 ([2]; 72 hr, Laminarin + virus): 80.672
- RQ2 ([2]; 72 hr, Laminarin + virus): 76.025
- RQ3 ([2]; 72 hr, Laminarin + virus): 53.346
- RQ mean ([2]; 72 hr, Laminarin + virus): 70.014
- RQ1 ([2]; 72 hr, Laminarin alone): 47.958
- RQ2 ([2]; 72 hr, Laminarin alone): 51.518
- RQ3 ([2]; 72 hr, Laminarin alone): 48.365
- RQ mean ([2]; 72 hr, Laminarin alone): 49.280
